Measurements: patent US9586951B2 (FUJIFILM Corporation, priority 2013, dated 2017)

Target: T1, ATM (Homo sapiens, UniProt Q13315)
T1 construct: detecting phosphorylation of Chk2 in a human non-small cell lung cancer cell line NCI-H460 (ATCC company); host or cells: NCI-H460 human non-small cell lung cancer cells
Experiment: ATM inhibition test (phosphorylation of Chk2 generated by ionizing radiation, AlphaScreen SureFire)
Format: cell-based
Details: phosphorylated Chk2 in NCI-H460 cells, ionizing radiation 8Gy, 1 hour after test compound treatment; read-out: ATM inhibitory activity
Method in brief: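 NCI-H460 cells treated with compound for 1 hour, then irradiated with 8Gy and incubated 1 hour at 37° C. Phospho-Chk2 measured by AlphaScreen SureFire. Inhibition ratio calculated relative to untreated irradiated and non-irradiated wells.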

T1 sequence (Q13315 whole entry): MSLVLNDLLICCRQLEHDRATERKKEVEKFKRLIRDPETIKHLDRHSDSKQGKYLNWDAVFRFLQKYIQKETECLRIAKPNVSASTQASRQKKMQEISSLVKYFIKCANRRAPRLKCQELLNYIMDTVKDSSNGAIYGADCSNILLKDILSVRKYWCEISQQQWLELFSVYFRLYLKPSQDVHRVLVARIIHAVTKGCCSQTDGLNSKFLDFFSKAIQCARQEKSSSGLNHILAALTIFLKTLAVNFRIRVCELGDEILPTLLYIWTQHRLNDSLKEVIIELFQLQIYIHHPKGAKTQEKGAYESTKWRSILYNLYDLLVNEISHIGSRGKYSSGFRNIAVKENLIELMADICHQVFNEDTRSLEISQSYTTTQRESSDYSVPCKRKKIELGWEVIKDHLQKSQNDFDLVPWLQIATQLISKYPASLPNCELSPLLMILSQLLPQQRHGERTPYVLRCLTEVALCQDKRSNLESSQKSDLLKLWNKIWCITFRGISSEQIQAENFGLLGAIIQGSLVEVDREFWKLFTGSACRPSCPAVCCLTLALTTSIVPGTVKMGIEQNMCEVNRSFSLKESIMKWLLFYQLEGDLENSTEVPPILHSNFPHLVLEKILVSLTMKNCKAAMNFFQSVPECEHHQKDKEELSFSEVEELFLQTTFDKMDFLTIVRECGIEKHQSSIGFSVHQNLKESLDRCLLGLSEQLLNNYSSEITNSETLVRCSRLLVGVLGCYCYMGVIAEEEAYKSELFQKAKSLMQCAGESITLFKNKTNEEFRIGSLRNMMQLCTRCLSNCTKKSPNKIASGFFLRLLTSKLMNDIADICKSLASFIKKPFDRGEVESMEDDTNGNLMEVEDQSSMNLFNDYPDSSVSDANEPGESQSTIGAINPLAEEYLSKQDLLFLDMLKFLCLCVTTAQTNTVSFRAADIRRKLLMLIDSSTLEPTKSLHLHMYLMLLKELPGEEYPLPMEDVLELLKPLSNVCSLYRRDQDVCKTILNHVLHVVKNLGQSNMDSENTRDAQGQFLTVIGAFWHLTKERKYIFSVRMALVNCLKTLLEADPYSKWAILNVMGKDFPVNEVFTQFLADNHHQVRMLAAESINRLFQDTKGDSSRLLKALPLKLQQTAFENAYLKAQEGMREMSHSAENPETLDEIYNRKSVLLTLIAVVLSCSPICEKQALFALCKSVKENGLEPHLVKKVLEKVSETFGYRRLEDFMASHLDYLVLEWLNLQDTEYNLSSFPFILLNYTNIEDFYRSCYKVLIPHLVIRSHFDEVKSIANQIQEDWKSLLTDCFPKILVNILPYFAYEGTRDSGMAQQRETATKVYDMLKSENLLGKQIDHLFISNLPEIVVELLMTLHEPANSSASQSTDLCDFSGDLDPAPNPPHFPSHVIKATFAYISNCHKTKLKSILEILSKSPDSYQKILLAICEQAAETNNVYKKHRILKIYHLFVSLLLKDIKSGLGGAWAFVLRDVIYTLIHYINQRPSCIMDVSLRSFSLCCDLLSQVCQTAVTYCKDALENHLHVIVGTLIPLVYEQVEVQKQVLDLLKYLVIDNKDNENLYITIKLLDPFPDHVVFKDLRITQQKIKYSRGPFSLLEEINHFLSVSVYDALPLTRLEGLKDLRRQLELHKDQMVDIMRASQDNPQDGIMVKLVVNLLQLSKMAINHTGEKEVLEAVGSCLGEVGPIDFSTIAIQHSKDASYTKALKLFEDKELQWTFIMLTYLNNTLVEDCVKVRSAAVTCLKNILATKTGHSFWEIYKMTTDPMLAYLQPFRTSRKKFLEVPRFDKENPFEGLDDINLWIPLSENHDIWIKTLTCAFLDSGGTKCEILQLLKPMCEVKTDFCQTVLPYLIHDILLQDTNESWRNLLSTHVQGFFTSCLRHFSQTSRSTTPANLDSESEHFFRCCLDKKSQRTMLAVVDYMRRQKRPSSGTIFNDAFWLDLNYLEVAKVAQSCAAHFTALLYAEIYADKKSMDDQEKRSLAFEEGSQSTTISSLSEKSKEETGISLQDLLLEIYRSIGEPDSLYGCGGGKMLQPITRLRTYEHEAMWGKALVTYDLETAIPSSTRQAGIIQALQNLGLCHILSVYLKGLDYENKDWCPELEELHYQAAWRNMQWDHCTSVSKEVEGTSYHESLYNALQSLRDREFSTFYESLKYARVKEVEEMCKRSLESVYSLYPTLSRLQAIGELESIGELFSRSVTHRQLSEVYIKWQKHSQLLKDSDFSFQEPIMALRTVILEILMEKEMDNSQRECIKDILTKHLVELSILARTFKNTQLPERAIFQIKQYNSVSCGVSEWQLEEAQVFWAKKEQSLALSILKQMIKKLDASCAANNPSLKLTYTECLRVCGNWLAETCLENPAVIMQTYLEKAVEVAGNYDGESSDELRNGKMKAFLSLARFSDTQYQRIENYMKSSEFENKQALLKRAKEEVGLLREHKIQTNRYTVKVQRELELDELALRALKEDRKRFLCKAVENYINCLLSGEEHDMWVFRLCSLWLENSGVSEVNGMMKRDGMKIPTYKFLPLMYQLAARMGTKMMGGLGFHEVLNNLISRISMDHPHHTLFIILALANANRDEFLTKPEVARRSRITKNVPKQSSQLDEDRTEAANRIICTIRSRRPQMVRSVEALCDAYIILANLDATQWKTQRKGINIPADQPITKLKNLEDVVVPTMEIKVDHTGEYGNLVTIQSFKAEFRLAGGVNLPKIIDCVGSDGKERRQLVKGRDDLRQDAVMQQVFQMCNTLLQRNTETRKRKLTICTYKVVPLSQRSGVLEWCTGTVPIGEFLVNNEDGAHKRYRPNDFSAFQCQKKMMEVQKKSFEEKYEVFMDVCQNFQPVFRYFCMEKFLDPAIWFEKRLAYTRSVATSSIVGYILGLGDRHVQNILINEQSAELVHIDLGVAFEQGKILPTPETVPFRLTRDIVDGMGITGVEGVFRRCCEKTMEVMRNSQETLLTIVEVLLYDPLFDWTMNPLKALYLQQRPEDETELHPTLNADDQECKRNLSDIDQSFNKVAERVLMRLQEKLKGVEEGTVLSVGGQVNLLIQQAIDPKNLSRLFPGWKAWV

Compound | IC50 [nM]
O=c1cc(N2CCOCC2)cc(-c2cccc3c2Oc2ccc(NC4CCN(Cc5ccsc5)CC4)cc2C3)[nH]1 [Example 2-28-26, 4-Morpholino-6-(7-((1-(thiophen-3-ylmethyl)piperidin-4-yl)amino)-9H-xanthen-4-yl)pyridin-2(1H)-one] | 100 to 500
CCOC(=O)C(C)Nc1ccc2c(c1)Cc1cccc(-c3cc(N4CCOCC4)cc(=O)[nH]3)c1O2 (centres unmarked) [Example 2-14-72, Ethyl 2-((5-(4-morpholino-6-oxo-1,6-dihydropyridin-2-yl)-9H-xanthen-2-yl)amino) propanoate] | 100 to 500
Cc1ccc(C(Nc2ccc3c(c2)Sc2cccc(-c4cc(N5CCOCC5)cc(=O)[nH]4)c2S3)C2CCN(CCF)CC2)nc1 (centres unmarked) [Example 1-56-6, 6-(7-(((1-(2-Fluoroethyl)piperidin-4-yl)(5-methylpyridin-2-yl)methyl)amino)thianthren-1-yl)-4-morpholino pyridin-2(1H)-one] | < 100
O=c1cc(N2CCOCC2)cc(-c2ccc(F)c3c2Oc2ccc(NCc4cc(C5CC5)ccn4)cc2C3)[nH]1 [Example 2-44-2, 6-(7-(((4-Cyclopropylpyridin-2-yl)methyl)amino)-1-fluoro-9H-xanthen-4-yl)-4-morpholinopyridin-2(1H)-one] | 100 to 500
COc1ccc(CN2CCC(Nc3ccc4c(c3)Cc3cccc(-c5cc(N6CCOCC6)cc(=O)[nH]5)c3O4)CC2)cn1 [Example 2-28-6, 6-(7-((1-((6-Methoxypyridin-3-yl)methyl)piperidin-4-yl)amino)-9H-xanthen-4-yl)-4-morpholino pyridin-2(1H)-one] | 100 to 500
CC1CCCCN1CC(CO)Nc1ccc2c(c1)Sc1cccc(-c3cc(N4CCOCC4)cc(=O)[nH]3)c1S2 (single isomer, unassigned) [Example 1-37-6, 6-(7-((1-Hydroxy-3-(2-methylpiperidin-1-yl)propan-2-yl)amino)thianthren-1-yl)-4-morpholino pyridin-2(1H)-one] | 100 to 500
CC(CN1CCN(Cc2cccnc2)CC1)Nc1ccc2c(c1)Sc1cccc(-c3cc(N4CCOCC4)cc(=O)[nH]3)c1S2 (centres unmarked) [Example 1-15-3, 4-Morpholino-6-(7-((1-(4-(pyridin-3-ylmethyl)piperazin-1-yl)propan-2-yl)amino)thianthren-1-yl)pyridin-2(1H)-one] | 100 to 500
O=c1cc(N2CCOCC2)cc(-c2cccc3c2Oc2ccc(NCc4cncc(-c5cccnc5)c4)cc2C3)[nH]1 [Example 2-2-57, 6-(7-(([3,3′-Bipyridin]-5-ylmethyl)amino)-9H-xanthen-4-yl)-4-morpholino pyridin-2 (1H)-one] | 100 to 500
Cc1ncsc1CNc1ccc2c(c1)Cc1cccc(-c3cc(N4CCOCC4)cc(=O)[nH]3)c1O2 [Example 2-13-2, 6-(7-(((4-Methylthiazol-5-yl)methyl)amino)-9H-xanthen-4-yl)-4-morpholino pyridin-2(1H)-one] | 100 to 500
Cc1ccnc(C(C)Nc2ccc3c(c2)Cc2cccc(-c4cc(N5CCOCC5)cc(=O)[nH]4)c2O3)c1 (single isomer, unassigned) [Example 2-14-93-2, 6-(7-((1-(4-methylpyridin-2-yl)ethyl)amino)-9H-xanthen-4-yl)-4-morpholinopyridin-2(1H)-one] | < 100
4-Morpholino-6-(7-((1-(5- (morpholino methyl) pyrimidin-2-yl)ethyl) amino)thianthren-1- yl)pyridin-2(1H)-one [Example 1-12-95] | 100 to 500
Cc1ccnc(C(C)Nc2ccc3c(c2)Sc2cccc(-c4cc(N5CCOCC5)cc(=O)[nH]4)c2S3)n1 (single isomer, unassigned) [Example 1-12-144-2, 6-(7-((1-(4-methylpyrimidin-2-yl)ethyl)amino)thianthren-1-yl)-4-morpholinopyridin-2(1H)-one] | 100 to 500
CCC(Nc1ccc2c(c1)Sc1cccc(-c3cc(N4CCOCC4)cc(=O)[nH]3)c1S2)[C@H](CC)N1CCOCC1 (stereo partly drawn) [Example 1-21-4, 4-Morpholino-6-(7-(((4S)-4-morpholinohexan-3-yl)amino)thianthren-1-yl) pyridin-2(1H)-one] | 100 to 500
Cc1ccnc(C(CO)Nc2ccc3c(c2)Cc2cccc(-c4cc(N5CCOCC5)cc(=O)[nH]4)c2O3)n1 (centres unmarked) [Example 2-14-82, 6-(7-((2-Hydroxy-1-(4-methylpyrimidin-2-yl)ethyl)amino)-9H-xanthen-4-yl)-4-morpholino pyridin-2(1H)-one] | 500 to 2000
CC1CCCN(CC(CO)Nc2ccc3c(c2)Sc2cccc(-c4cc(N5CCOCC5)cc(=O)[nH]4)c2S3)C1 (centres unmarked) [Example 1-37-1, 6-(7-((1-hydroxy-3-(3-methylpiperidin-1-yl)propan-2-yl)amino)thianthren-1-yl)-4-morpholinopyridin-2(1H)-one] | 100 to 500
CN(C)c1ccc(CNc2ccc3c(c2)Cc2cccc(-c4cc(N5CCOCC5)cc(=O)[nH]4)c2O3)cn1 [Example 2-2-8, 6-(7-(((6-(Dimethylamino)pyridin-3-yl)methyl)amino)-9H-xanthen-4-yl)-4-morpholino pyridin-2(1H)-one] | 100 to 500
COc1cncc(CNc2ccc3c(c2)Cc2cccc(-c4nc(N5CCOCC5)cc(=O)[nH]4)c2O3)c1 [Example 2-52-2, 2-(7-(((5-Methoxypyridin-3-yl)methyl)amino)-9H-xanthen-4-yl)-6-morpholino pyrimidine-4(3H)-one] | 100 to 500
O=c1cc(N2CCOCC2)cc(-c2cccc3c2Sc2ccc(NC(CF)CN4CCOCC4)cc2S3)[nH]1 (single isomer, unassigned) [Example 1-41-1-3, 6-(7-((1-fluoro-3-morpholinopropan-2-yl)amino)thianthren-1-yl)-4-morpholinopyridin-2(1H)-one] | 100 to 500
Cc1cnc(C(CCN2CCN(C)CC2)Nc2ccc3c(c2)Sc2cccc(-c4cc(N5CCOCC5)cc(=O)[nH]4)c2S3)cn1 (single isomer, unassigned) [Example 10-3-2, 6-(7-((3-(4-Methylpiperazin-1-yl)-1-(5-methylpyrazin-2-yl)propyl)amino)thianthren-1-yl)-4-rnorpholino pyridin-2 (1H)-one] | < 100
CNCC(Nc1ccc2c(c1)Sc1cccc(-c3cc(N4CCOCC4)cc(=O)[nH]3)c1S2)c1cccc(C)n1 (single isomer, unassigned) [Example 1-19-4-1, 6-(7-((2-(Methylamino)-1-(6-methylpyridin-2-yl)ethyl)amino)thianthren-1-yl)-4-morpholinopyridin-2(1H)-one] | 100 to 500
COc1ccncc1CN1CCC(Nc2ccc3c(c2)Sc2cccc(-c4cc(N5CCOCC5)cc(=O)[nH]4)c2S3)CC1 [Example 1-45, 6-(7-((1-((4-Methoxypyridin-3-yl)methyl)piperidin-4-yl)amino)thianthren-1-yl)-4-morpholinopyridin-2(1H)-one] | 100 to 500
O=c1cc(N2CCOCC2)cc(-c2cccc3c2Oc2ccc(NCc4cnccc4Cl)cc2S3)[nH]1 [Example 4-4-18] | 100 to 500

More lines, now with the values ahead:

IC50 [nM] | Compound
100 to 500 | O=c1cc(N2CCOCC2)cc(-c2cccc3c2Oc2ccc(NC4CCN(c5cccnc5)CC4)cc2C3)[nH]1 [Example 2-2-28, 4-Morpholino-6-(7-((l-(pyridin-3-yl)piperidin-4-yl)amino)-9H-xanthen-4-yl) pyridin-2(1H)-one]
100 to 500 | Cc1cnc(CNc2ccc3c(c2)Cc2cccc(-c4cc(N5CCOCC5)cc(=O)[nH]4)c2O3)cn1 [Example 2-14-76, 6-(7-(((5-Methylpyrazin-2-yl)methyl)amino)-9H-xanthen-4-yl)-4-morpholino pyridin-2(1H)-one]
< 100 | O=c1cc(N2CCOCC2)cc(-c2cccc3c2Sc2ccc(NC(CN4CCOCC4)CN4CCOCC4)cc2S3)[nH]1 [Example 1-51-12, 6-(7-((1,3-Dimorpholinopropan-2-yl)amino)thianthren-1-yl)-4-morpholino pyridin-2 (1H)-one]
< 100 | O=c1cc(N2CCOCC2)cc(-c2cccc3c2Sc2ccc(NCc4cncc(-n5ccnc5)c4)cc2S3)[nH]1 [Example 1-12-20, 6-(7-(((5-(1H-Imidazol-1-yl)pyridin-3-yl)methyl)amino)thianthren-1-yl)-4-morpholino pyridin-2(1H)-one]
100 to 500 | Cc1cc(CNc2ccc3c(c2)Sc2cccc(-c4cc(N5CCOCC5)cc(=O)[nH]4)c2O3)ccn1 [Example 4-4-3, 6-(8-(((2-Methylpyridin-4-yl)methyl)amino)phenoxathiin-4-yl)-4-morpholino pyridin-2 (1H)-one]
500 to 2000 | CC(C)(C)OC(=O)N1CCC(C#N)(Nc2ccc3c(c2)Cc2cccc(-c4cc(N5CCOCC5)cc(=O)[nH]4)c2O3)CC1 [Example 2-26, tert-butyl 4-cyano-4-((5-(4-morpholino-6-oxo-1,6-dihydropyridin-2-yl)-9H-xanthen-2-yl)amino)piperidine-1-carboxylate]
100 to 500 | O=c1cc(N2CCOCC2)cc(-c2cc(F)cc3c2Oc2ccc(NCc4cc(C5CC5)ccn4)cc2C3)[nH]1 [Example 2-48-4, 6-(7-(((4-Cyclopropylpyridin-2-yl)methyl)amino)-2-fluoro-9H-xanthen-4-yl)-4-morpholinopyridin-2(1H)-one]
100 to 500 | Cc1ccncc1CNc1ccc2c(c1)Cc1cccc(-c3cc(N4CCOCC4)cc(=O)[nH]3)c1O2 [Example 2-14-5, 6-(7-(((4-Methylpyridin-3-yl)methyl)amino)-9H-xanthen-4-yl)-4-morpholino pyridin-2(1H)-one]
100 to 500 | O=C(OCc1ccccc1)N1C[C@@H](N2CCOCC2)[C@H](Nc2ccc3c(c2)Sc2cccc(-c4cc(N5CCOCC5)cc(=O)[nH]4)c2S3)C1 (racemic) [Example 11-1, Benzyl 3-morpholino-4-((6-(4-morpholino-6-oxo-1,6-dihydropyridin-2-yl)thianthren-2-yl)amino)pyrrolidine-1-carboxylate]
< 100 | CN(C)c1cnc(CN(Cc2cnc(N(C)C)cn2)c2ccc3c(c2)Cc2cccc(-c4cc(N5CCOCC5)cc(=O)[nH]4)c2O3)cn1 [Example 2-2-76, 6-(7-(bis((5-(dimethylamino)pyrazin-2-yl)methyl)amino)-9H-xanthen-4-yl)-4-morpholinopyridin-2(1H)-one]
